Test results from ChEMBL document CHEMBL5346973 (J Med Chem, 2023).
The source made the active and inactive calls. The calls are words filed in the database; no cut-off is given here.

Assays:
[1] = target: Nicotinic acetylcholine receptor alpha9/alpha10 (Rattus norvegicus, UniProt P43144+Q9JLB5); assay: Antagonist activity at rat alpha9alpha10 nACh receptor expressed in Xenopus oocyte assessed as inhibition of acetylcholine-induced response at -70 mV holding potential by voltage-clamp based electrophysiological assay; type: cell-based
Sequence of Nicotinic acetylcholine receptor alpha9/alpha10 (P43144 whole entry): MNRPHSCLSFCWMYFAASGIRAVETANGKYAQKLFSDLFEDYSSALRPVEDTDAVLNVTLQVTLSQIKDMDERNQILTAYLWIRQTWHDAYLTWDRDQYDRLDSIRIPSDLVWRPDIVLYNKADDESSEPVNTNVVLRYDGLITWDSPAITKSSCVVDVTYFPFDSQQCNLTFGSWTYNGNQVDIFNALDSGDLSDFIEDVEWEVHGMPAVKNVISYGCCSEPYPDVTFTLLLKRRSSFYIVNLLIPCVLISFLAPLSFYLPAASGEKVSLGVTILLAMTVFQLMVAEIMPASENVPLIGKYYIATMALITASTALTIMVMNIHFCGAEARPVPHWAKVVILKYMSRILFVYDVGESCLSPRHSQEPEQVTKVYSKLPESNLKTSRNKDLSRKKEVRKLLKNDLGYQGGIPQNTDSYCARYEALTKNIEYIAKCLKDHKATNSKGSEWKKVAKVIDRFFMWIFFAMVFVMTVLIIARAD
Sequence of Nicotinic acetylcholine receptor alpha9/alpha10 (Q9JLB5 whole entry): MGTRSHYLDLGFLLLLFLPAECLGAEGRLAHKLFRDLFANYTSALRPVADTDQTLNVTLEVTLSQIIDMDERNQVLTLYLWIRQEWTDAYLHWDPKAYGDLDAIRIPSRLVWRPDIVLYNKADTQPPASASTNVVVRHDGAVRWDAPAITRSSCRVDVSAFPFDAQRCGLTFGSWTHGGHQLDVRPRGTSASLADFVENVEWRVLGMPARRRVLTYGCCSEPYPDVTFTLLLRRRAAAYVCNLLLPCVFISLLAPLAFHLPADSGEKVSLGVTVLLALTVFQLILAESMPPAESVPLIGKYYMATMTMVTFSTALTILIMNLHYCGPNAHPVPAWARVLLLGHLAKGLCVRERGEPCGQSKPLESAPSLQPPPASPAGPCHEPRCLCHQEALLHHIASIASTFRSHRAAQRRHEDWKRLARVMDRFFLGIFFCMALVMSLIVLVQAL

[2] = target: Neuronal acetylcholine receptor; alpha9/alpha10 (Homo sapiens, UniProt Q9GZZ6+Q9UGM1); assay: Antagonist activity at human alpha9alpha10 nACh receptor expressed in Xenopus oocyte assessed as inhibition of acetylcholine-induced response at -70 mV holding potential by voltage-clamp based electrophysiological assay; type: cell-based
[3] = target: Neuronal acetylcholine receptor subunit alpha-7 (Rattus norvegicus, UniProt Q05941); assay: Antagonist activity at rat alpha7 nACh receptor expressed in Xenopus oocyte assessed as inhibition of acetylcholine-induced response at -70 mV holding potential by voltage-clamp based electrophysiological assay; type: cell-based
Sequence of Neuronal acetylcholine receptor subunit alpha-7 (Q05941 whole entry): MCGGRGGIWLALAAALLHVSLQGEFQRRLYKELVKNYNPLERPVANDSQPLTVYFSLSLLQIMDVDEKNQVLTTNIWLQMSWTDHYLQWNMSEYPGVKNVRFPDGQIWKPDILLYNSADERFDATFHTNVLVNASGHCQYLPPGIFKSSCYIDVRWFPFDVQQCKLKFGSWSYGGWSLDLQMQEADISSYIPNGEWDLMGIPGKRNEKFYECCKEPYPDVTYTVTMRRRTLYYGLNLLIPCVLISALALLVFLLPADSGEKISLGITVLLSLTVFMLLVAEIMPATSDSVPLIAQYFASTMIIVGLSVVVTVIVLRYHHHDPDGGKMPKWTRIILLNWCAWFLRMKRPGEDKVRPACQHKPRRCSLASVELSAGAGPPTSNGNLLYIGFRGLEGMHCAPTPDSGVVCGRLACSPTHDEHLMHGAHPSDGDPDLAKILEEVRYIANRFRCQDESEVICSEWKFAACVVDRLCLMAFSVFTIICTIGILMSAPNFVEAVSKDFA

[4] = target: Nicotinic acetylcholine receptor alpha9/alpha10 (Rattus norvegicus) (UniProt P43144+Q9JLB5); assay: Antagonist activity at rat alpha9alpha10 nACh receptor expressed in Xenopus oocyte assessed as inhibition of acetylcholine-induced response at -70 mV holding potential by measuring recovery at 10 nM after 5 mins by voltage-clamp based electrophysiological assay relative to control; type: cell-based; details: filed as antagonist
[5] = target: Neuronal acetylcholine receptor; alpha3/beta2 (Rattus norvegicus, UniProt P04757+P12390); assay: Antagonist activity at rat alpha3beta2 nACh receptor expressed in Xenopus oocyte assessed as inhibition of acetylcholine-induced response at -70 mV holding potential by voltage-clamp based electrophysiological assay; type: cell-based
[6] = target: Neuronal acetylcholine receptor; alpha3/beta4 (Rattus norvegicus, UniProt P04757+P12392); assay: Antagonist activity at rat alpha3beta4 nACh receptor expressed in Xenopus oocyte assessed as inhibition of acetylcholine-induced response at -70 mV holding potential by voltage-clamp based electrophysiological assay; type: cell-based
Sequence of Neuronal acetylcholine receptor; alpha3/beta4 (P04757 whole entry): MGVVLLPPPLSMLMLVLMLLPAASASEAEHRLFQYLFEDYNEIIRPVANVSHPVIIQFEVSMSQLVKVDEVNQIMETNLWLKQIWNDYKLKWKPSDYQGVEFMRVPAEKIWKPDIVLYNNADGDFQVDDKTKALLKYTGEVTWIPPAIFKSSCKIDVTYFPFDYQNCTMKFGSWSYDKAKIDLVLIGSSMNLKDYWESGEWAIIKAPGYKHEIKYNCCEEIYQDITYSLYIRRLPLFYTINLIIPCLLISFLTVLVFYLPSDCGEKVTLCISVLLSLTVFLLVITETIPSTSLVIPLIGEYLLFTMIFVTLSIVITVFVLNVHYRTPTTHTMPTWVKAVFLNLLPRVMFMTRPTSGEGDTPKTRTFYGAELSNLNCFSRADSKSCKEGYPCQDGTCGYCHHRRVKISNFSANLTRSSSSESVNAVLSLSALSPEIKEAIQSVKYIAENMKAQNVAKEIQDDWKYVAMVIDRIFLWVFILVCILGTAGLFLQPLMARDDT
Sequence of Neuronal acetylcholine receptor; alpha3/beta4 (P12392 whole entry): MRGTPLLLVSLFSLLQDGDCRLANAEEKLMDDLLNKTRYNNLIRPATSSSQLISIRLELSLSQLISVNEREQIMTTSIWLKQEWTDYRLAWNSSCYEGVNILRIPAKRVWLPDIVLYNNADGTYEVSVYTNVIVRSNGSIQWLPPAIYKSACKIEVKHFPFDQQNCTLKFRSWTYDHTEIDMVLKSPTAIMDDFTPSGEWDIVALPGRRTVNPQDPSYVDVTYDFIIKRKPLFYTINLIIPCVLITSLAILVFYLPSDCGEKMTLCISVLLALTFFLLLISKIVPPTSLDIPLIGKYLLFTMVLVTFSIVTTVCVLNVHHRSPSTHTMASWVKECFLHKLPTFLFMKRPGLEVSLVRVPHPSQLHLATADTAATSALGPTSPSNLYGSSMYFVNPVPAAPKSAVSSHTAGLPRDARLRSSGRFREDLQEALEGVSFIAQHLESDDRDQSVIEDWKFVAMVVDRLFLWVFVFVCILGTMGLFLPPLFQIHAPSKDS

[7] = target: Nicotinic acetylcholine receptor alpha6/alpha3/beta4 (Rattus norvegicus, UniProt P04757+P12392+P43143); assay: Antagonist activity at rat alpha6/alpha3beta4 nACh receptor expressed in Xenopus oocyte assessed as inhibition of acetylcholine-induced response at -70 mV holding potential by voltage-clamp based electrophysiological assay; type: cell-based
[8] = target: Neuronal acetylcholine receptor; alpha2/beta2 (Rattus norvegicus, UniProt P12389+P12390); assay: Antagonist activity at rat alpha2beta2 nACh receptor expressed in Xenopus oocyte assessed as inhibition of acetylcholine-induced response at -70 mV holding potential by voltage-clamp based electrophysiological assay; type: cell-based
Sequence of Neuronal acetylcholine receptor; alpha2/beta2 (P12389 whole entry): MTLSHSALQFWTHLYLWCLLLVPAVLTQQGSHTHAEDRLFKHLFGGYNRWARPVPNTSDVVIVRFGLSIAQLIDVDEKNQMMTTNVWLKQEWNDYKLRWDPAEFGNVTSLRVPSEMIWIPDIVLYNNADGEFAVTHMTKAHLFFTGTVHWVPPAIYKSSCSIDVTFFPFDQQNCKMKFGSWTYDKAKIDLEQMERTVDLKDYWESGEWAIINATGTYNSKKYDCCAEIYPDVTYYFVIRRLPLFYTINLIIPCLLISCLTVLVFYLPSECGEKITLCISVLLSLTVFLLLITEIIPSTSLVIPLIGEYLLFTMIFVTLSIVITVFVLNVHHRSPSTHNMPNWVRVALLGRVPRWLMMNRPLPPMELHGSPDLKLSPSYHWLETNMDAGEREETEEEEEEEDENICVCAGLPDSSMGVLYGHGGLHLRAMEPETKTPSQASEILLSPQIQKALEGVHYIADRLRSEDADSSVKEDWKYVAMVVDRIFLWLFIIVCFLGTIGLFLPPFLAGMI
Sequence of Neuronal acetylcholine receptor; alpha2/beta2 (P12390 whole entry): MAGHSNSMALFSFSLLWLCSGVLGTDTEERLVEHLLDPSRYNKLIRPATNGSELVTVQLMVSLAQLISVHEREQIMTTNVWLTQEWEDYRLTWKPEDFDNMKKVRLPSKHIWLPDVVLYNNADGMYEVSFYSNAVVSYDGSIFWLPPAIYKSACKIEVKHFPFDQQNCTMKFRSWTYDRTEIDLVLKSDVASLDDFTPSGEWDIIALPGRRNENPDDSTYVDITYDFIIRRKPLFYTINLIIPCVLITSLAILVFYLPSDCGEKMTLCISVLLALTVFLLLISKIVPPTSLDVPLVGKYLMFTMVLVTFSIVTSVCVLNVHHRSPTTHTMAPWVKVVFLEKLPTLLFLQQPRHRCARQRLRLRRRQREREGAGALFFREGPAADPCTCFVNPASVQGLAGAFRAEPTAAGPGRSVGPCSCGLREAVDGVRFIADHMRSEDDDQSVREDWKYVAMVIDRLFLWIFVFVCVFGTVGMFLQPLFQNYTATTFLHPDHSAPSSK

[9] = target: Neuronal acetylcholine receptor; alpha4/beta2 (Rattus norvegicus, UniProt P09483+P12390); assay: Antagonist activity at rat alpha4beta2 nACh receptor expressed in Xenopus oocyte assessed as inhibition of acetylcholine-induced response at -70 mV holding potential by voltage-clamp based electrophysiological assay; type: cell-based
[10] = target: Neuronal acetylcholine receptor; alpha2/beta4 (Rattus norvegicus, UniProt P12389+P12392); assay: Antagonist activity at rat alpha2beta4 nACh receptor expressed in Xenopus oocyte assessed as inhibition of acetylcholine-induced response at -70 mV holding potential by voltage-clamp based electrophysiological assay; type: cell-based
Sequence of Neuronal acetylcholine receptor; alpha2/beta4 (P12389 whole entry): as the sequence (P12389 whole entry) above
Sequence of Neuronal acetylcholine receptor; alpha2/beta4 (P12392 whole entry): as the sequence (P12392 whole entry) above

[11] = target: Neuronal acetylcholine receptor; alpha4/beta4 (Rattus norvegicus, UniProt P09483+P12392); assay: Antagonist activity at rat alpha4beta4 nACh receptor expressed in Xenopus oocyte assessed as inhibition of acetylcholine-induced response at -70 mV holding potential by voltage-clamp based electrophysiological assay; type: cell-based
[12] = target: T1, Neuronal acetylcholine receptor; alpha9/alpha10 (Homo sapiens) (UniProt Q9UGM1+Q9GZZ6); assay: Antagonist activity at human alpha9alpha10 nACh receptor expressed in Xenopus oocyte assessed as inhibition of acetylcholine-induced response at -70 mV holding potential by measuring current response at 10 nM by voltage-clamp based electrophysiological assay; type: cell-based; details: filed as antagonist
[13] = target: T1, Neuronal acetylcholine receptor; alpha9/alpha10 (Homo sapiens); assay: Antagonist activity at human alpha9alpha10 nACh receptor expressed in Xenopus oocyte assessed as inhibition of acetylcholine-induced response at -70 mV holding potential by measuring leftward shit in concentration response curve at 10 nM by voltage-clamp based electrophysiological assay; type: cell-based; details: filed as antagonist
[14] = Stability of the compound in human serum assessed as compound remaining after 6 hr by UPLC analysis; type: ADME, cell-free

| SMILES | IC50 [1] | IC50 [2] | IC50 [3] | Activity [4] | IC50 [5] | IC50 [6] | IC50 [7] | IC50 [8] | IC50 [9] | IC50 [10] | IC50 [11] | inhibition [12] | inhibition [13] | Stability [14] |
| --- | --- | --- | --- | --- | --- | --- | --- | --- | --- | --- | --- | --- | --- | --- |
| CC(C)[C@H](NC(=O)[C@@H]1CSSC[C@H](NC(=O)[C@@H](N)[C@@H](C)O)C(=O)N[C@@H](CCCNC(=N)N)C(=O)N[C@@H](CO)C(=O)N[C@@H](CO)C(=O)NCC(=O)N[C@@H](CCCNC(=N)N)C(=O)N[C@@H](Cc2ccc(O)cc2)C(=O)N[C@H]2CSSC[C@H](NC(=O)[C@H](Cc3ccc(O)cc3)NC(=O)[C@H](CCCNC(=N)N)NC(=O)[C@H](CCCNC(=N)N)NC(=O)[C@H](CCCNC(=N)N)NC(=O)[C@H](CCCNC(=N)N)NC(=O)[C@H](CC(=O)O)NC(=O)[C@H](Cc3ccc(O)cc3)NC(=O)[C@@H]3CCCN3C(=O)[C@H](CO)NC(=O)[C@H](CCCNC(=N)N)NC2=O)C(=O)N[C@@H](CCCNC(=N)N)C(=O)N[C@@H](CCCNC(=N)N)C(=O)N[C@@H](C)C(=O)N[C@@H]([C@@H](C)O)C(=O)N[C@@H](CC(=O)O)C(=O)N[C@@H](C)C(=O)N1)C(=O)O | 0.0014 µM | 0.011 µM | 1.36 µM | Active | 1.46 µM | 6.03 µM | 4.01 µM | 2.99 µM | 3.15 µM | 3.65 µM | 8.24 µM | 60% | Active | Stable |
| CC[C@H](C)[C@@H]1NC(=O)[C@H](CCCNC(=N)N)NC(=O)[C@H](CCCNC(=N)N)NC(=O)[C@@H](NC(=O)[C@H](Cc2ccc(O)cc2)NC(=O)[C@H](CCCNC(=N)N)NC(=O)[C@H](C)NC(=O)[C@H](CCCNC(=N)N)NC(=O)[C@H](CCCNC(=N)N)NC(=O)[C@H](CC(=O)O)NC(=O)[C@H](Cc2ccc(O)cc2)NC(=O)[C@@H]2CCCN2C(=O)[C@H](CO)NC(=O)[C@H](CCCNC(=N)N)NC(=O)[C@@H]2CSSC[C@H](NC(=O)[C@@H](N)[C@@H](C)O)C(=O)N[C@@H](CCCNC(=N)N)C(=O)N[C@@H](CO)C(=O)N[C@@H](CO)C(=O)NCC(=O)N[C@@H](CCCNC(=N)N)C(=O)N[C@@H](Cc3ccc(O)cc3)C(=O)N2)CSSC[C@@H](C(=O)N[C@H](C(=O)O)C(C)C)NC(=O)[C@H](C)NC(=O)[C@H](CC(=O)O)NC(=O)[C@H]([C@@H](C)O)NC1=O | 0.027 µM |  | 4.48 µM |  |  |  |  |  |  |  |  |  |  | Stable |
